Measurements from patent US6235516A, “Biocatalysts with amine acylase activity” (Novartis AG, priority 1996, dated 2001).
Like-named read-outs stand apart in the source and are kept apart here.

What was measured:
[1] = test system: Rhodococcus globerulus K1/1 acylase; type: biochemical; conditions: none = 100
Procedure: The standard assay for K1/1-acylase activity used for monitoring the purification and for the enzymological characterization is performed by mixing 20 μl of an enzyme sample with 380 μl of a 5.55 mM solution of (S)-2-acetylamino-1-phenyl-4-pentene in 69 mM potassium phosphate buffer, pH 7, and incubating at 23° C. The dilution of the acylase and the incubation time are chosen so that not more than 1.3 mM of product are formed. The reaction is stopped by addition of 800 μl ice cold methanol. After centrifugation for 4 min at 11500 rpm in a Biofuge 15 (Heraeus Sepatech, Osterode, Germany) the supernatant is subjected to quantitative HPLC analysis (see example 1).
27.1. Activity of the Rhodococcus globerulus K1/1 acylase in the presence of potential enzyme activators and inhibitors: […]

[2] = target: T1, acylase from Rhodococcus equi Ac6 (Rhodococcus (subgen. Prescottella) equi, UniProt A0A3S5Y3Z2); assay: Enzymatic hydrolysis of racemic amides with partially purified acylase from Rhodococcus equi Ac6; type: biochemical; parameters: e.e. (R)-Amide: unit not given here; conditions: for Selectivity E: enantioselectivity of the hydrolysis; for e.e. (S)-Amine: formed amine, analysed as acetamide; for e.e. (R)-Amide: unconverted amide, chiral HPLC
T1 construct: N-terminus […]
T1 sequence (A0A3S5Y3Z2 1-487): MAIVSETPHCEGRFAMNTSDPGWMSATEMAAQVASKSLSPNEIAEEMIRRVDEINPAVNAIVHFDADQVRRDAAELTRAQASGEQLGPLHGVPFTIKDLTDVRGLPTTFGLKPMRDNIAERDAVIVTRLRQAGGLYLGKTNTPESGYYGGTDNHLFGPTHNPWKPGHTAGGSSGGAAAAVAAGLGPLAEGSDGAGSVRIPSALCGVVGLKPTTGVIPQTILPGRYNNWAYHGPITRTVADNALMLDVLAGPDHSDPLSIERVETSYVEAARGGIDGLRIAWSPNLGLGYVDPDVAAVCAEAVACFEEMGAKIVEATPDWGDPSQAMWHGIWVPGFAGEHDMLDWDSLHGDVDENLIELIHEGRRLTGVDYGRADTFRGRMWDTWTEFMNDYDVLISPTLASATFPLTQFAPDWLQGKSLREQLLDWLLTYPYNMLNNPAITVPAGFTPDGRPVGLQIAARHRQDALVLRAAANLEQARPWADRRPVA
Procedure: (§1) To 10 ml of a 20 mM solution of each of the racemic amides shown below 1 in 0.1 M phosphate buffer pH 7.0, 5 ml (1.3 units) of the enzyme is added and the solutions are shaken at 100 rpm and 30° C. [drawing 10] [drawing 11]
(§2) When the conversion reaches about 50% (checked by HPLC) the solutions are acidified to pH 2 by adding 1 N HCl and extracted three times with dichloromethane to obtain the unconverted amides. The aqueous layers are neutralized with 1 N NaOH solution and extracted again three times with dichloromethane to recover the formed amines. Both organic phases are dried with MgSO4, filtered and the solvent is distilled off. The amides are used directly for optical purity determinations (HPLC), whereas the obtained amines are converted to the acetamides by adding 100 μl triethylamine and 100 μl acetic anhydride to each sample and then analyzed for the optical purity by "chiral" HPLC.
The experiments are carried out in the same manner as described in example 22.

[3] = test system: acylase from Arthrobacter aurescens Ac5R; assay: Enzymatic hydrolysis of racemic amides with highly purified acylase from Arthrobacter aurescens Ac5R; type: biochemical; conditions: for Selectivity E: enantioselectivity of the hydrolysis; for e.e. (R)-Amine: formed amine, analysed as acetamide by chiral HPLC; for e.e. (S)-Amide: unconverted amide, chiral HPLC
Procedure: as §1, §2

Ac6-acylase = Ac6-acylase (Rhodococcus (subgen. Prescottella) equi, UniProt A0A3S5Y3Z2); assay: Activity of the Ac6-acylase in the presence of potential enzyme activators and inhibitors; type: biochemical; conditions: none = 100
Chain of Ac6-acylase (A0A3S5Y3Z2 entry or part of it): as the sequence (A0A3S5Y3Z2 1-487) above
Procedure: After an incubation at 30° C. for a time period allowing the liberation of 0 to 3 mM of 1-phenylethylamine 400 μl of ice cooled acetone are added to stop the reaction. The tube is mixed vigorously, put on ice for about 15 min., and then is centrifuged for 4 min at 11500 rpm in a Biofuge 15 (Heraeus Sepatech, Osterode Germany). The supernatant is subjected to quantitative HPLC analysis. If activity assays contain crude extracts of cells grown in the presence of N-acetyl-1-phenylethylamine a control assay without substrate has to be prepared in parallel in order to determine the 1-phenylethylamine content of the crude extract. For HPLC analysis sample volumes of 20 μl are injected onto a RP-8 column (LiChroCART 125-4, LiChrospher 100 RP-8 ([…]), guard column: LiChroCART 4-4, LiChrospher 100 RP-8 ([…]), Merck Co., Darmstadt Germany). The following gradient with a flow rate of 1.25 ml/min. is applied for the separation of the substrate N-acetyl-1-phenylethylamine and the product 1-phenylethylamine:
One unit (U) of acylase activity is defined as the amount of enzyme catalyzing the liberation of 1 μmol of 1-phenylethylamine per minute. The acylase concentration in the samples is calculated according to the following formula: […]
In the presence of various potential enzyme activators and inhibitors activity assays are performed according to the scheme given in example 1 by applying the following conditions and final concentrations:
(S)-N-acetyl-1-phenylethylamine 20 mM
Purified acylase from example 4 c 0.02 U/ml
Incubation time 120 min.

AcR5b-acylase = assay: Activity of the AcR5b-acylase in the presence of potential enzyme activators and inhibitors; type: biochemical, Arthrobacter aurescens AcR5b; conditions: for Relative activity (%): 30 min preincubation, none = 100; for Relative activity (%), EDTA reactivation: preincubated with 1 mM metal cation, then 10 mM EDTA for 30 min
Procedure: 40 μl of the concentrated enzyme solution from example 4d) are mixed with 360 μl of 1 and 10 mM solutions of the potential activators/inhibitors in 100 mM Tris-HCl buffer, pH 8, and incubated at room temperature for 30 min. These preincubated acylase solutions are used as the enzyme source for activity assays in the presence of the activator/inhibitor (see example 8) in the concentration used for the preincubation. The incubation time is 12 min. For the EDTA reactivation the acylase is first preincubated with the metal cation at 1 mM concentration (see above). After adding EDTA to a final concentration of 10 mM in form of a 110 mM solution in 100 mM Tris-HCl, pH 8, the acylase is preincubated a second time for 30 min., before the standard activity assay is performed.

[4] = compound 1 mM, 20 mM (S)-N-acetyl-1-phenylethylamine, Tris-HCl pH 8, 120 min
[5] = compound 10 mM, values printed in brackets: precipitates formed
[6] = compound 10 mM, values in brackets: precipitates formed during the assay

Row | SMILES | Relative activity (%) ([1]; compound 1 mM) | Relative activity (%) ([1]; compound 10 mM) | Selectivity E [2] | e.e. (S)-Amine [2] | e.e. (R)-Amide [2] | Selectivity E [3] | e.e. (R)-Amine [3] | e.e. (S)-Amide [3] | Relative activity (%) (Ac6-acylase; [4]) | activity at 10000 µM (Ac6-acylase; compound 10 mM, values in brackets: precipitates formed during the assay, read-out: Relative activity (%)) [%] | Relative activity (%) (AcR5b-acylase; compound 1 mM, Tris-HCl pH 8) | Relative activity (%) (AcR5b-acylase; [5]) | Relative activity (%) (Ac6-acylase; [6]) | Relative activity (%), EDTA reactivation (AcR5b-acylase) [%]
1 | O=C(O)c1cc[c]([Hg+])cc1.[OH-] [p-hydroxy-mercuribenzoate] | 89 | 96 | – | – | – | – | – | – | – | – | – | – | – | –
2 | CC(=O)NC(C)c1ccc(C#N)cc1 (racemic) [Substrate 3a] | – | – | > 500 | > 99.9 | 97.4 | 320 | 95.0 | > 99.9 | – | – | – | – | – | –
3 | N[C@@H]1CONC1=O [D-cycloserine] | 104 | 96 | – | – | – | – | – | – | – | – | – | – | – | –
4 | O[C@H](CS)[C@H](O)CS (racemic) [Dithiothreitol] | 112 | 77 | – | – | – | – | – | – | 103 | 100 | 35 | 5.4 | – | –
5 | [Ba+2].[Cl-].[Cl-] [BaCl2] | – | – | – | – | – | – | – | – | 95 | – | 92 | 89 | 99 | –
6 | [Cl-].[Cl-].[Zn+2] [ZnCl2] | 66 | 0 | – | – | – | – | – | – | 68 | – | < 1.5 | 0 | 47 | 75
7 | [Cl][Fe]([Cl])[Cl] [FeCl3] | 101 | 37 | – | – | – | – | – | – | 101 | – | 121 | 132 | 92 | –
8 | [Cl][Cd][Cl] [CdCl2] | – | – | – | – | – | – | – | – | 85 | – | 5 | 0 | 38 | 79
9 | [Ca+2].[Cl-].[Cl-] [CaCl2] | 89 | 85 | – | – | – | – | – | – | 90 | – | 92 | 88 | 83 | –
10 | [Cl-].[Cl-].[Mg+2] [MgCl2] | 101 | 87 | – | – | – | – | – | – | 90 | – | 103 | 93 | 99 | –
11 | CC(=O)NC(C)c1ccc2c(c1)OCO2 (racemic) [Substrate 8a] | – | – | 280 | 97.8 | 90.1 | 60 | 91.5 | 82.4 | – | – | – | – | – | –
12 | [Cl-].[Cl-].[Co+2] [CoCl2] | 97 | 86 | – | – | – | – | – | – | 69 | – | 26 | 15 | 83 | 91
13 | [Cl][Mn][Cl] [MnCl2] | 94 | 83 | – | – | – | – | – | – | 87 | – | 99 | 60 | 87 | –
